US12479805B2, “Indazole hydrazide compound and application thereof” (Beijing Baheal Chengchuang Pharmaceutical Research and …, priority 2021, dated 2025)
Where two headings read alike, the source gives them in different places.

Assays:
tumor cells 22RV1 = test: Anti-tumor activity assay (chemiluminescence CTG cell viability), 22RV1; assay type: cell-based; conditions: 22RV1 cells; for Hillslope 22RV1: fitted dose-effect curve; for IC50: Homo sapiens, 72 h, CTG chemiluminescence
Experimental: (§1) The frozen tumor cells (prostate cancer, ovarian cancer, etc.) were taken out from liquid nitrogen, and quickly dissolved at 37° C. The cells were added to 5 ml of the corresponding medium containing FBS and centrifuged at 300 g for 5 minutes. The precipitate was collected, resuspended with the corresponding medium and then mixed well. After that, cells were added to a 24-well cell culture dish, supplemented with the medium to a total volume of 2 mL per well at 37° C. and cultured. After the confluence reached about 90%, subculturing or counting and plating was performed.
(§2) After the cultured tumor cells were sufficient to be passaged, they were digested with trypsin and a single cell suspension was prepared. After counting, cells were adjusted to a concentration of 1.2×10^4 cells/ml with the corresponding medium. 90 μl of the mixed solution was added to a 96-well plate and incubated at 37° C. for 30 minutes. Then the mixture was added with the corresponding medium and incubated in a cell incubator at 37° C. overnight. The morphology and confluence of tumor cells were observed.
(§3) After the tumor cells were cultured overnight, serial dilutions of the compounds were prepared and added to the culture system.
(§4) The stock solution of the indazole hydrazide compound (100 mM) dissolved in DMSO was fully dissolved at room temperature. If there was any insoluble matter, heating and ultrasonication were carried out for 5 minutes to observe until dissolution.
(§5) 20 μl DMSO was added to wells 2-9 of a 96-well V-shaped compound dilution plate, and 30 μl stock solution was added to well 1. The compound dilution plate was placed on a shaking mixer. 10 μl liquid was transferred from well 1 to well 2, mixed well by pipetting and shaking, then 10 μl of liquid was transferred from well 2 to well 3, mixed well by pipetting and shaking, and so on . . . and finally 10 μl of liquid was transferred from well 8 to well 9, mixed well by pipetting and shaking, and 1000× gradient dilution stock solution was prepared. [Note: As DMSO easily absorbs moisture in the air, after the operation, the compound dilution plate was immediately sealed with parafilm, stored at 4° C., and discarded after 1 week. When using it again, the parafilm was removed after the temperature reached room temperature to avoid inaccurate concentration caused by moisture absorption.]
(§6) In the ultra-clean workbench, a 96-well sterile cell culture plate was used. 198 μl of medium was added to wells 1-9, and 2 μl of the stock solution in wells 1-9 of the 1000× stock solution was transferred to the corresponding wells 1-9 of the 96-well sterile cell culture plate, mixed well by pipetting and shaking, and […] was prepared. This stock solution needed to be prepared and used on the same day.
(§7) 10 μl of the 10× stock solution prepared on the day was added to the cell culture medium.
(§8) It was incubated for 72 h at 37° C. under 5% carbon dioxide conditions.
(§9) Chemiluminescence method was used to measure ATP level of cells to evaluate cell viability. The specific operation was performed in accordance with the instructions. After the incubation, 50 μL of CTG solution was added. After mixing well, the lysis mixture was transferred to a microplate reader. After 5-10 minutes, the chemiluminescence data were gathered in the microplate reader. Excel software was used to analyze and process the data, and GraphPad Prism 7 software was used to calculate IC50 according to the fitted dose-effect curve generated by the chemiluminescence data.
(§10) In this test, Z factor was used as a quality control indicator. Z′ factor was defined by 4 parameters: the mean (μ) and standard deviation (σ) of the positive control (positive, p) and the negative control (negative, n).
(§11) The negative control group was the untreated group with the addition of solvent (DMSO); the positive control was 2.5 μM BEZ235 or 1 μM Staurosporine. […]

tumor cells LNCaP = test: Anti-tumor activity assay (chemiluminescence CTG cell viability), LNCaP; assay type: cell-based; conditions: for IC50: Homo sapiens, 72 h, CTG chemiluminescence
Experimental: as §1, §2, §3, §4, §5, §6, §7, §8, §9, §10, §11

HUVEC cells = test: 2D angiogenesis experiment (HUVEC on Matrigel); assay type: cell-based, human; conditions: VEGF, 4 h
Experimental: 3.1 Evaluation of Anti-Angiogenesis of Compounds by 2D Angiogenesis Experiment:
(1) In a 96-well plate, 50 ul of 100% Matrigel was added to each well and air bubbles should be avoided. The plate was then placed in a 37° C. incubator for 45 minutes.
(2) When the confluence of HUVEC cells in good growth state reached about 80%, the cells were digested, and resuspended in HUVEC complete medium. 40 uL of resuspension was added to each well in triplicate at a concentration of 4×10000 cells/well.
(3) 5 uL of compounds with three concentrations of high, medium and low was added to the test compound group. In the VEGF group, 5 uL of culture medium containing 200 ng/ml VEGF was added. In the solvent group, 10 uL culture medium was supplemented.
(4) Cells were incubated in a 37° C. 5% CO2 incubator for 4 h, and photos of each well were taken.

[1] = system: tumor cells and HUVEC cells spheroids; test: 3D co-culture of tumor cells and HUVEC cells anti-angiogenesis experiment; assay type: cell-based, human; conditions: 0.3 μM, 1.0 μM, day 2 and day 5, VEGF 20 ng/mL
Experimental: 3.2 Experiments of Evaluating Anti-Angiogenesis of Compounds by 3D Co-Culture of Tumor Cells and HUVEC Cells: • (1) 25,000 tumor cells and 25,000 HUVEC cells were mixed and plated in a low-adsorption 24-well plate. Cells were shaken horizontally in a 37° C. incubator and placed for 24 h to form a suspension of Spheroids. • (2) 40 uL of 10% Matrigel was added to each well, and placed at 37° C. for 45 min to crosslink and harden the gel. 40 uL of suspension with Spheroids was added to wells. • (3) After 24 h, 10 uL of compounds with three concentrations of high, medium and low was added to the test compound group. In the VEGF group, 10 uL of culture medium containing 200 ng/ml VEGF was added. In the solvent group, 20 uL culture medium was supplemented. • (4) Cells were incubated in a 37° C. 5% CO2 incubator for 0, 2, 5, and 7 days, and photos of each well were taken.
Bright-field photos were taken under the microscope, scale bar=100 μm. The imageview software measurement tool was used to count the length of the blood vessels generated by one organoid. The average of the total length of blood vessels was calculated. It was compared with the 20 ng/ml VEGF group. *p<0.05, **p<0.01. Error bars indicate ±SEM.
In the 3D […] experiment, the following conclusions can be drawn based on the bright field photos and the total length of blood vessels on 0, 2, 5, and 7 days after addition of drugs: […]

integrin protein αvβ3 = integrin protein αvβ3 (Homo sapiens, UniProt P05106+P06756); test: Affinity test by surface plasmon resonance (Biacore 8K); assay type: binding
Chain of integrin protein αvβ3 (P06756 31-1048): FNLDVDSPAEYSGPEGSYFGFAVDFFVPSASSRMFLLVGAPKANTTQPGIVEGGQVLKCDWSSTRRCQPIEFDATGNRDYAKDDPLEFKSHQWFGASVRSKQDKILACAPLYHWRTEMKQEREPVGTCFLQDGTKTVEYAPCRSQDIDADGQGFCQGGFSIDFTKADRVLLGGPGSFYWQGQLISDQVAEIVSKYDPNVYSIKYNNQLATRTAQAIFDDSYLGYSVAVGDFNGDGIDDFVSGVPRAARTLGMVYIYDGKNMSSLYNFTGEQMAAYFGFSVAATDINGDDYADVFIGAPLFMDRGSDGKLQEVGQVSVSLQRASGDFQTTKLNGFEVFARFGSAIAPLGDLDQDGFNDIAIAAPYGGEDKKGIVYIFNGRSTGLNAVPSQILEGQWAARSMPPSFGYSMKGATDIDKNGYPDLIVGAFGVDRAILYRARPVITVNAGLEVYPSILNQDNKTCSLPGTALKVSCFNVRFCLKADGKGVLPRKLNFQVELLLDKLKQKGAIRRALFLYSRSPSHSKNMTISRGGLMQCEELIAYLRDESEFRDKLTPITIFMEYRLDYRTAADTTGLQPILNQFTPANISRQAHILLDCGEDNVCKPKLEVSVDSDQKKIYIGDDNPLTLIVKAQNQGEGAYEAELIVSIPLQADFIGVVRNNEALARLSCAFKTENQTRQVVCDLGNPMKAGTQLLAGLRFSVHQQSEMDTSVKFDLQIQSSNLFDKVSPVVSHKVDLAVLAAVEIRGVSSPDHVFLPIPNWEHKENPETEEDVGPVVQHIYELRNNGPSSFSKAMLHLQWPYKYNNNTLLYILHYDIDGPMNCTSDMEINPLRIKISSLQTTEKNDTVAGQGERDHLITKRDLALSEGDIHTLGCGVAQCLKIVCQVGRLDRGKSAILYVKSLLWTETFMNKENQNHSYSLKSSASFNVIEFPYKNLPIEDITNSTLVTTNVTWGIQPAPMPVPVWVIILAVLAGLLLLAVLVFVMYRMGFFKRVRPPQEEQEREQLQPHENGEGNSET
Chain of integrin protein αvβ3 (P05106 27-788): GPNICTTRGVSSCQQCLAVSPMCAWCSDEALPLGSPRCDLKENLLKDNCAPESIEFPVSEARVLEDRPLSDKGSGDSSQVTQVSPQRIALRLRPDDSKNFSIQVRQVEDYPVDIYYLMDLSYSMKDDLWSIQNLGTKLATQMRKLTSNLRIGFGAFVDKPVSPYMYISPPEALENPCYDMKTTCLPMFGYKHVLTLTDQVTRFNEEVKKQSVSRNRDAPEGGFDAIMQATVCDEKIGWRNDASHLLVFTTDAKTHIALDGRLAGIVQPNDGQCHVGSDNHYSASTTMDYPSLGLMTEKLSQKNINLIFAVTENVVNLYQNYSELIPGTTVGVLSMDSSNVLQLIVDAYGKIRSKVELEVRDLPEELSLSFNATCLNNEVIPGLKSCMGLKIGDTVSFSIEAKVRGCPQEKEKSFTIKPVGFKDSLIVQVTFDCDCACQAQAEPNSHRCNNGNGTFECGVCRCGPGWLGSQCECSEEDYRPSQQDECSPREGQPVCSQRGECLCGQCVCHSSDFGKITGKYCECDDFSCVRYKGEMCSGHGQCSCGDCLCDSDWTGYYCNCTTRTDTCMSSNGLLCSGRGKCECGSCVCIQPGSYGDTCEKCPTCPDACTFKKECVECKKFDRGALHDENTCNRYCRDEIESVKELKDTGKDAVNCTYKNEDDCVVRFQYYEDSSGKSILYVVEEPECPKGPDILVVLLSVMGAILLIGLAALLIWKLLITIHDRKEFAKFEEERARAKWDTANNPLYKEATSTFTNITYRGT
Experimental: The surface plasmon resonance instrument Biacore 8K was used to analyze the interaction between the compound and the integrin protein αvβ3. First, the system temperature was set to 25° C., and the flow rate to […]. PBS buffer was passed until the baseline was stable.
Without activating the surface of the chip, the integrin αvβ3 protein sample was dissolved in sodium acetate buffer with different pH values (pH=4, 4.5, 5) to make it carry different amounts of charge. Then the integrin protein sample flowed through the surface of the chip at a flow rate of 10 μL/min. Through the binding curve of integrin and the chip, a appropriate pH condition (pH=4.0) was determined. Finally, 50 mM NaOH eluate was injected to wash away the protein adsorbed on the chip surface.
CM5 chip was selected. The protein coupling was operated according to the amino coupling method, and the coupling steps are as follows: • (1) Activation: NHS/EDC mixture (0.1 M NHS and 0.4 M EDC, mixed at a volume ratio of 1:1 before use, and used immediately) was injected for 800 s at a flow rate of 10 μL/min, to activate the carboxyl of glucan on the surface of the chip; • (2) Immobilization: 20 ng/μL integrin αvβ3 protein solution was prepared with the buffer with the pH value determined in the pretreatment, and was injected for 800 s at a flow rate of 10 μL/min; • (3) Blocking: 1 M ethanolamine hydrochloride was used to block for 800 s to complete the immobilization process of the protein. 4.1.4 Binding Experiment
The compound to be tested was dissolved in PBS-P buffer (1.0×PBS, pH7.4, 0.15M Nacl, 0.05% tween-20), to prepare to a concentration of 50 μM. It was injected at a flow rate of 10 μL/min for a preliminary binding analysis.
The compound that was positive in the preliminary analysis was then prepared with buffers to a concentration gradient of 50 μM, 25 μM, 12.5 μM, 6.3 μM, 3.1 μM, 1.6 μM, 0.78 μM, 0.39 μM, 0.097 μM, 0.024 μM, and 0.0061 μM, and SB273005 was used as a positive control for a kinetic constant analysis.

[2] = system: prostate cancer PC-3 cells; test: Anti-tumor activity assay (chemiluminescence), PC-3; assay type: cell-based; conditions: FIG. 21-22
Experimental: as §1
as §2, with “observed. […]” for “observed.”
(§12) Chemiluminescence method was used to measure ATP level of cells to evaluate cell viability. […] After mixing well, the lysis mixture was transferred to a microplate reader. After 5-10 minutes, the chemiluminescence data were gathered in the microplate reader. […]

[3] = system: prostate cancer DU145 cells; test: Anti-tumor activity assay (chemiluminescence), DU145; assay type: cell-based; conditions: FIG. 21-22
Experimental: as §1
as §2, with “observed. […]” for “observed.”
as §12

melanoma cell WM115 = test: Anti-tumor activity assay (chemiluminescence), WM115; assay type: cell-based; conditions: WM115 cells, FIG. 21-22
Experimental: as §1
as §2, with “observed. […]” for “observed.”
as §12

[4] = system: ovarian cancer cell OVCAR-4; test: Anti-tumor activity assay (chemiluminescence), OVCAR-4; assay type: cell-based; conditions: OVCAR-4 cells, FIG. 21-22
Experimental: as §1
as §2, with “observed. […]” for “observed.”
as §12

[5] = system: vascular endothelial cell HUVEC-T11; test: Activity assay (chemiluminescence), HUVEC-T11; assay type: cell-based; conditions: HUVEC-T11 cells, FIG. 21-22
[6] = system: microvascular endothelial cell HMEC-1; test: Activity assay (chemiluminescence), HMEC-1; assay type: cell-based; conditions: HMEC-1 cells, FIG. 21-22
[7] = system: drug-resistant 22RV1 cells; test: Combination with enzalutamide on 22RV1 cells (chemiluminescence); assay type: cell-based; conditions: in combination with enzalutamide, enzalutamide-resistant 22RV1 cells, FIG. 23
Experimental: as §9

[8] = SPR, immobilized integrin αvβ3, 25° C., read-out: KD affinity

Structure (SMILES) | Hillslope 22RV1 (tumor cells 22RV1) | IC50 (tumor cells 22RV1) [µM] | IC50 (tumor cells LNCaP) [µM] | inhibition of microtubule formation (HUVEC cells) | Kd (integrin protein αvβ3; [8]) [µM] | also measured
COc1ccc(/C=N/NC(=O)c2n[nH]c3c2CCCC3)cc1O [19-9] | −2.911 | 0.47 | 1.09 | significant inhibition | 0.78 | inhibition of angiogenesis (total length of blood vessels) compared with the VEGF group ([1]; 3.0 μM, FIG. 33-34): significantly inhibit angiogenesis
Cc1ccc(/C=N/NC(=O)c2n[nH]c3c2CCCC3)cc1 [19-4] | −4.343 | 0.25 | 0.36 | significant inhibition |  | inhibition of angiogenesis (total length of blood vessels) compared with the VEGF group ([1]; 0.1 μM, FIG. 32): significantly inhibit angiogenesis
CC(C)C/C=C(/C=N/NC(=O)c1n[nH]c2c1CCCC2)c1ccccc1 [19-2] | −0.7631 | 364 | 19.6 |  |  | 
O=C(N/N=C/c1c(O)cc(O)cc1O)c1n[nH]c2c1CCCC2 [19-5] | −2.689 | 49.6 | 36.7 |  | 2.15 | 
COc1ccc(/C=N/NC(=O)c2n[nH]c3c2CCCC3)cc1OC [19-7] | −13.53 | 4.08 | 4.27 | did not show any obvious inhibition | 10.1 | 
O=C(N/N=C/c1cccc(O)c1)c1n[nH]c2c1CCCC2 [Formula (5)] |  |  |  |  |  | anti-tumor activity (activity curve) (tumor cells 22RV1; FIG. 21-22): obvious anti-tumor activity; anti-tumor activity (activity curve) (tumor cells LNCaP; FIG. 21-22): obvious anti-tumor activity; anti-tumor activity (activity curve) [2]: obvious anti-tumor activity; anti-tumor activity (activity curve) [3]: obvious anti-tumor activity; tumor-inhibiting effect (activity curve) (melanoma cell WM115): highest tumor-inhibiting effect; inhibitory effect (activity curve) [4]: inhibitory effect; inhibitory effect (activity curve) [5]: inhibitory effect; inhibitory effect (activity curve) [6]: inhibitory effect; effect of combination with enzalutamide [7]: synergistic effect; Kd (integrin protein αvβ3; stated in summary text, read-out: KD value interacting with the protein αvβ3): 0.158 µM
Cc1ccc(/C=N/NC(=O)c2n[nH]c3c2CCCC3)cc1O [19-6] | −3.273 | 0.86 | 1.41 | significant inhibition |  | inhibition of angiogenesis (total length of blood vessels) compared with the VEGF group ([1]; 3.0 μM, FIG. 33-34): significantly inhibit angiogenesis
O=C(N/N=C/c1ccc([N+](=O)[O-])cc1)c1n[nH]c2c1CCCC2 [19-8] | −1.177 | 3.49 | 3.76 | did not show any obvious inhibition |  | 
C/C(CCc1ccc(O)cc1)=N\NC(=O)c1n[nH]c2c1CCCC2 [19-1] |  |  | 28.8 |  |  | 
O=C(N/N=C/CCc1cccc(C(F)(F)F)c1)c1n[nH]c2c1CCCC2 [19-3] |  |  | 19.6 |  |  | 
